Assay results taken from PubChem BioAssay (NCI).
Values joined by “and” are separate entries in the source; they are usually repeats but may differ in a detail not shown here. Equal values may be shown once.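 Five concentrations, 48 hours, 96-well plates. At the GI50, growth is halved. TGI is the concentration that stops growth completely.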

Columns and labels:
Test in all cases: NCI anticancer screen, dose series, 48 h
ACHN renal = system: ACHN renal
EKVX NSCLC = system: EKVX NSCLC
HL-60(TB) leukemia = system: HL-60(TB) leukemia
HOP-62 NSCLC = system: HOP-62 NSCLC
HT29 colon = system: HT29 colon
MDA-MB-231 breast = system: MDA-MB-231 breast
MOLT-4 leukemia = system: MOLT-4 leukemia
SNB-75 CNS = system: SNB-75 CNS
SR leukemia = system: SR leukemia
T-47D breast = system: T-47D breast

SMILES	TGI (ACHN renal)	TGI (EKVX NSCLC)	TGI (HL-60(TB) leukemia)	TGI (HOP-62 NSCLC)	TGI (HT29 colon)	TGI (MDA-MB-231 breast)	TGI (MOLT-4 leukemia)	TGI (SNB-75 CNS)	TGI (SR leukemia)	TGI (T-47D breast)	GI50 (SNB-75 CNS)	GI50 (EKVX NSCLC)	GI50 (MOLT-4 leukemia)	GI50 (SR leukemia)	GI50 (T-47D breast)
Cc1ccc(C(=O)c2[nH]c(Nc3cc(C)ccn3)c(C(=S)Nc3ccccc3)c2N)cc1	> 100 µM	> 100 µM	> 100 µM	> 100 µM	> 100 µM	> 100 µM	> 100 µM	> 100 µM	> 100 µM	> 100 µM	–	–	–	–	–
CCOC(=O)c1ccc(C(=O)/C(C(=O)OC(C)(C)C)=C2\CCCN2C)n1C	> 100 µM	> 100 µM	70.5 µM	> 100 µM	> 100 µM	> 100 µM	> 100 µM	77.8 µM	> 100 µM	> 100 µM	–	–	–	–	–
CC1=NC(C)(C)N(O)C1(C)C	> 100 µM	> 100 µM	> 100 µM	> 100 µM	> 100 µM	> 100 µM	> 100 µM	> 100 µM	> 100 µM	> 100 µM	–	–	–	–	–
COC(=O)C(CCSC)NC(=O)CSc1nnc(COc2ccc(Cl)cc2)n1-c1ccccc1 (stereo not given)	32.1 µM	75.3 µM	38.6 µM	23.8 µM	34.7 µM	31.3 µM	43 µM	33.7 µM	42.4 µM	> 78.7 µM	–	–	–	–	–
O=CN(O)CC(=O)O	> 100 µM	> 100 µM	> 100 µM	> 100 µM	> 100 µM	> 100 µM	> 100 µM	> 100 µM	> 100 µM	> 100 µM	–	–	–	–	–
COc1cc(/C=C/C(=O)O)ccc1OS(=O)(=O)O	> 100 µM	> 100 µM	> 100 µM	> 100 µM	> 100 µM	> 100 µM	> 100 µM	> 100 µM	> 100 µM	> 100 µM	–	–	–	–	–
COC(=O)/C=C\S/C(=C(/c1ccccc1)n1ccc(C(=O)OC)n1)c1ccccc1	20.1 µM	> 100 µM	> 100 µM	50.4 µM	> 100 µM	70.9 µM	> 100 µM	24 µM	> 100 µM	> 100 µM	–	–	–	–	–
COC(=O)[C@H]1C=C[C@H](OC2OC(COC(C)=O)C(OC(C)=O)C(OC(C)=O)C2OC(C)=O)n2c(=O)n(-c3ccccc3)c(=O)n21 (stereo not given in full)	3.08 µM	7.37 µM	> 100 µM	21.1 µM	8.58 µM	24.5 µM	6.16 µM	24.9 µM	8.33 µM	> 28.1 µM	–	–	–	–	–
COc1cc(/C=C/c2cc(=O)cc(/C=C/c3ccc(O)c(OC)c3)o2)ccc1O	> 100 µM	> 100 µM	> 100 µM	> 63.8 µM	> 100 µM	> 100 µM	> 100 µM	> 95 µM	> 100 µM	> 93.3 µM	–	–	–	–	–
CCNC(=S)N/N=C/c1ccccn1	70.7 µM	> 100 µM	23.2 µM	54 µM	> 100 µM	> 100 µM	> 100 µM	> 100 µM	> 100 µM	> 100 µM	–	–	–	–	–
CC1OC(n2cc(F)c(=O)[nH]c2=O)C(O[Si](C)(C)C(C)(C)C)C1O[Si](C)(C)C(C)(C)C (stereo not given)	26.9 µM	31.6 µM	45.1 µM	43.7 µM	23.3 µM	31.6 µM	> 100 µM	31.3 µM	> 100 µM	27.1 µM	–	–	–	–	–
CN(C)c1nc(=NCc2ccccn2)ss1	> 10 µM	> 10 µM	4.95 µM	> 10 µM	> 10 µM	> 10 µM	4.91 µM	> 10 µM	4.75 µM	> 10 µM	–	–	–	–	–
CC1(C)[C@@H]2C[C@H]1c1cnc(-c3ccccn3)cc1[C@H]2C(O)[C@@H]1c2cc(-c3ccccn3)ncc2[C@H]2C[C@@H]1C2(C)C (stereo not given in full)	1.54 µM	13.3 µM	0.112 µM	5.58 µM	3.57 µM	3.89 µM	0.505 µM	87.3 µM	0.354 µM	53.1 µM	–	–	–	–	–
CC(C)(C)c1ccc2c(c1)OCc1n[nH]c(n1)COc1cc(C(C)(C)C)ccc1OCCOCCO2	14.8 µM	17.7 µM	> 100 µM	19.2 µM	10.3 µM	25.5 µM	17.6 µM	19.2 µM	13 µM	12.4 µM	–	–	–	–	–
CCOC(=O)Cc1nn2c(=O)cc(C)nc2s1	> 100 µM	> 100 µM	> 100 µM	> 100 µM	> 100 µM	> 100 µM	> 100 µM	> 100 µM	> 100 µM	> 100 µM	–	–	–	–	–
CC/C=C\C/C=C\C/C=C\CCCCCCCC(=O)OC(COC(=O)CCCCCCCCCCCCCCCCC)COC1OC(CO)C(O)C(O)C1O (stereo not given)	> 25 µM	> 25 µM	> 25 µM	> 25 µM	> 25 µM	> 25 µM	> 25 µM	> 25 µM	> 25 µM	> 25 µM	–	–	–	–	–
COn1cc(CO)c2ccccc21	> 100 µM	> 100 µM	> 100 µM	> 100 µM	> 100 µM	> 100 µM	> 100 µM	> 100 µM	> 100 µM	> 100 µM	–	–	–	–	–

SMILES	TGI (ACHN renal)	TGI (EKVX NSCLC)	TGI (HL-60(TB) leukemia)	TGI (HOP-62 NSCLC)	TGI (HT29 colon)	TGI (MDA-MB-231 breast)	TGI (MOLT-4 leukemia)	TGI (SNB-75 CNS)	TGI (SR leukemia)	TGI (T-47D breast)	GI50 (SNB-75 CNS)	GI50 (EKVX NSCLC)	GI50 (MOLT-4 leukemia)	GI50 (SR leukemia)	GI50 (T-47D breast)
Cc1ccc([N+](=O)[O-])c2c(NCCCN(C)C)ccnc12	> 100 µM	> 100 µM	> 100 µM	> 100 µM	> 90.7 µM	> 100 µM	> 100 µM	> 100 µM	> 100 µM	> 100 µM	–	–	–	–	–
N/C(CSCCSC/C(N)=N/O)=N\O	> 100 µM	> 100 µM	> 100 µM	> 100 µM	> 100 µM	> 100 µM	> 100 µM	> 100 µM	> 100 µM	> 100 µM	–	–	–	–	–
CC(C)Cc1c(C#N)c(C#N)c(N)n1Cc1ccccc1	> 100 µM	> 100 µM	> 100 µM	> 100 µM	> 100 µM	> 100 µM	> 100 µM	> 100 µM	> 100 µM	> 100 µM	–	–	–	–	–
NNC(=O)c1cccc2c1Oc1ccccc1S2	> 100 µM	> 100 µM	> 100 µM	> 100 µM	> 100 µM	> 100 µM	> 100 µM	> 100 µM	> 100 µM	> 100 µM	–	–	–	–	–
CC[P+](C#Cc1ccccc1)(c1ccccc1)c1ccccc1	13 µM	11.9 µM	1.05 µM	8.94 µM	6.98 µM	9.41 µM	3.93 µM	5.31 µM	5.73 µM	6.88 µM	–	–	–	–	–
COc1ccc(/C=N/Nc2nc3ccccc3c(=O)n2-c2ccccc2)c(OCc2ccccc2)c1	> 100 µM	> 100 µM	> 100 µM	> 100 µM	> 100 µM	> 100 µM	> 100 µM	> 100 µM	> 100 µM	> 100 µM	> 100 µM	–	–	–	–
COc1cc(-c2c3c(cc4c2OCO4)[C@@H](Nc2ccc4c(c2)Cc2cc(N[C@@H]5c6cc7c(cc6C(c6cc(OC)c(O)c(OC)c6)[C@H]6C(=O)OC[C@H]56)OCO7)ccc2-4)[C@H]2COC(=O)[C@@H]2C3)cc(OC)c1O (stereo not given in full)	> 100 µM	> 100 µM	> 100 µM	57.5 µM	47.2 µM	> 100 µM	> 100 µM	> 100 µM	56.5 µM	> 100 µM	–	–	–	–	–
CCOC1NC(=O)c2ccccc21 (stereo not given)	> 100 µM	> 100 µM	> 100 µM	> 100 µM	> 100 µM	> 100 µM	> 100 µM	> 100 µM	> 100 µM	> 100 µM	–	–	–	–	–
COc1ccc(CCCCl)c(C2=NCCc3ccccc32)c1	> 100 µM	> 100 µM	> 100 µM	> 100 µM	> 100 µM	> 100 µM	> 100 µM	> 100 µM	> 100 µM	> 100 µM	–	–	–	–	–
C[C@@H]1C(=O)CC2(O)[C@@]13C[C@@H](OC(=O)[C@@H]3O)[C@@H](C)[C@@]21COC1=O (stereo not given in full)	> 100 µM	> 100 µM	> 100 µM	> 100 µM	> 100 µM	> 100 µM	> 100 µM	> 100 µM	> 100 µM	> 100 µM	–	–	–	–	–
Nc1n[nH]c2ccccc12	> 100 µM	> 100 µM	> 100 µM	> 100 µM	> 100 µM	> 100 µM	> 100 µM	> 100 µM	> 100 µM	> 100 µM	–	–	–	–	–
O=C(CN=C(CN(c1ccccc1)c1ccccc1)Oc1c(Cl)cc(Cl)cc1Cl)n1cnc2ccccc21	> 100 µM	> 100 µM	> 100 µM	> 100 µM	> 100 µM	> 100 µM	> 100 µM	> 100 µM	> 100 µM	> 100 µM	–	–	–	–	–
COC(=O)C1=C(C(=O)OC)C2(C)CCC(=O)C1O2 (stereo not given)	> 10 µM	> 10 µM	> 10 µM	> 10 µM	> 10 µM	> 10 µM	> 10 µM	> 10 µM	> 10 µM	> 10 µM	–	–	–	–	–
O=C(/C=C1\C[C@H]2C=Nc3ccccc3C(=O)N2C1)NCCCCCNC(=O)/C=C1\C[C@H]2C=Nc3ccccc3C(=O)N2C1	3.88 µM	38.5 µM	6.13 µM	31.8 µM	27.4 µM	30.4 µM	> 100 µM	28.4 µM	12.4 µM	15.7 µM	–	–	–	–	–
COc1cc2nc(-c3c(F)cccc3F)n(Cc3c(F)cccc3F)c2cc1Cc1c(F)cccc1F	> 100 µM	> 100 µM	> 100 µM	> 100 µM	> 100 µM	> 100 µM	> 100 µM	> 70.8 µM	> 100 µM	> 100 µM	–	–	–	–	–
COCC(=O)OC1CCn2c1nc1c2C(=O)C(C)=C(NC(C)=O)C1=O (stereo not given)	19.5 µM	20.3 µM	3.68 µM	41.1 µM	29.5 µM	4.71 µM	6.36 µM and 4.94 µM	14.8 µM	5.17 µM and 12.5 µM	5.51 µM and 2.68 µM	–	3.75 µM	0.772 µM	2.52 µM	1.03 µM
